Read-outs that look alike come from different tables or passages of the source.
Assays:
[1] = tested on: MIL-resistant L. tropica promastigotes; assay: microbe, parasite or virus in culture; assay type: cell-based, Leishmania tropica; conditions: for IC50: Leishmania tropica, 72 h, read-out: Anti-leishmanial activity against MIL-resistant L. tropica via MTT assay (IC50 = µM ± SEM)
Method: (§1) In vitro biological activities of CU, coformers and synthesized cocrystals 2–6 were evaluated for their MIL-resistant L. tropica promastigotes and cytotoxicity against […]. Detailed methodologies of the biological assays are provided in the supporting information.
(§2) Biological activities evaluations
1. MIL-resistant L. tropica assay protocol
Miltefosine (hexadecylphosphocholine) (LEAP Chem), RPMI-1640 culture medium (Gibco), supplemented with 10% (v/v) heat-inactivated fetal bovine serum (FBS) (Gibco), 2 mM L-glutamine, 1% penicillin/ streptomycin (Sigma), DMSO (ALC labscan), and Trypan blue […]
Clinical Isolate and Generation of MIL resistant line:
Clinical isolate (L. tropica promastigote) from the endemic area of Islamabad (Pakistan) was ob tained from a patient. Promastigote cultures were maintained at 26 °C in RPMI medium, containing 15 % FBS and 1 % penicillin–streptomycin mixture. Clinical isolate was characterized by sequencing.
(§3) Generation of Miltefosine-unresponsive strain was carried under high MIL pressure by in vitro passage with stepwise increase in the MIL concentration. At each step, parasites were cultured, and passaged every 3–4 days at an initial concentration of 5x10^5 promastigotes/mL in order to achieve the stable growth, as compared to the wild type isolate. Growth rates were measured for resistant populations and compared with the WT strain. Parasites were counted at an initial concentration of 5 x 10^5 parasites/mL, and growth was measured daily using a Neubauer chamber until the population reached stationary phase. Fu rth ermore, the fluorescence microscopic investigations via DAPI stain were also carried out to supplement the study, and for […]
Promastigote Growth Inhibition Assay
(IC50) of resistant cell proliferation concerning untreated controls, the MTT assay was employed.
The promastigotes in their log phase were used in 96-well plates. 1 × 106 wild-type and resistant […]
promastigotes were dispensed in 96-well plates, and incubated with tested compounds at a range concentration of 200–10 μM (stock concentration 1mg/mL and the working con centrations started from 250 µg/mL) at 27°C for 72 h. After incubation of 72 h, MTT dye (3-(4,5-dimethylthiazol-2-yl)-2,5-diphenyl-2H-tetrazolium bromide) was added and further incubate it for 3–4 h. Amphotericin B, pantamidine and miltefosine were used as th e positive control, untreated promastigotes were used as negative control moreover DMSO control was also added in the study as a stock solution of the compounds that were prepared in DMSO. All the experiments were performed in triplicates. After completion of the experiment the absorbance by Multiskan ascent plate reader at 452 nm and percent inhibition was calculated by the following […]
Cytotoxic concentration (%) = [100- (Absorbance of test)/ (Absorbance of solv ent con trol) ×100]

[2] = tested on: MIL-resistant L. tropica promastigotes; assay: Growth of MIL-resistant L. tropica line generated by step-wise selection (trypan blue count); assay type: cell-based, Leishmania tropica; conditions: step-wise selection of MIL up to 196 µM, Fig. 9
Method: L. tropica MIL-unresponsive/resistant parasites were developed and maintained using a step-wise selection of the drug MIL up to a concentration of 196 µM. No significant differences in growth patterns were observed between WT- and MIL-resistant strains.
Figure 9 MIL-resistant L. tropica line generated by step-wise selection. 1 × 10^6 log-phase promastigotes were incubated in the presence of a range of drug concentrations. The surviving cells were quantified with trypan blue dye. Populations of parasites were grown in increasing concentrations of MIL, showing increased resistance to MIL. Bars of both resistant and WT parasites represent the more or less similar growth patterns.
as §2
1. MIL-resistant L. tropica assay protocol […]
as §3, with “At each step, parasites were cultured, and passaged every 3–4 days at an initial concentration of 5x10^5 promastigotes/mL in order to achieve the stable growth, as compared to the wild type isolate.” left out

[3] = Thermal analysis (DSC and TGA); assay type: physicochemical; conditions: heating rate 10°C min^-1, dry N2
Method: DSC and TGA were performed on a LINSEIS STA PT1600 with heating rate of 10°C min^−1. About 20–25 mg of samples were crimped in a ceramic pan and scanned from 30 to 600°C under dry N2 gas purging. The Linseis TA software (version 1.0; Linseis Messgeraete GmbH) was employed for collecting data.

[4] = tested on: 3T3 (normal mouse fibroblast) cell line; assay: in vitro
Method: as §1
(§4) 2. Cytotoxicity assay Protocol:
(§5) Cy totoxicity o f compounds was evaluated in 96-well flat-bo ttomed micro plates by using the standard MTT (3-[4, 5-dimethylthiazole-2-y l]-2 , 5-d iph eny l-tetrazolium bromide) colorimetric assay. For this purpose, 3T3 (mouse fibroblast) cells were cultured in Dulb ecco’s Modified Eagle Medium, supplemented with 5% of fetal bovine serum (FBS), 100 IU/mL of penicillin and 100 µg / m L of strep tomy cin in 75 cm2 flasks, and kept in 5% CO2 incubator at 37° C.
(§6) Exponentially growing cells were harvested, counted with haemocytometer, and diluted with a particular medium. Cell culture with the concentration of 5x10^4 cells/mL was p rep ared and introduced (100 µL/well) into 96-well plates. After overnight incubation, medium was removed and 200 µL of fresh medium was added with different concentrations of compounds (1-30 µM).
(§7) After 48 hrs. 200 µL MTT (0.5 mg/mL) was added to each well, and incubated further for 4 hrs.
(§8) Subsequently, 100 µL of DMSO was added to each well. The extent of MTT reduction to formazan within cells was calculated by measuring the absorbance at 540 nm, using a micro-plate reader (Spectra Max p lus, Molecular Devices, USA). The cy totoxicity was recorded as a concentration causing 50% growth inhibition (IC50) of 3T3 cells. The percent inhibition was calculated by using the fo llo wing formula:
(§9) % Inhibition = 100-((mean of O.D of test compound – mean of O.D of negative control)/ (mean of O.D. of positive control – mean of O.D of negative control)*100).
(§10) The results (% inhibition) were processed by using Soft- Max Pro software (Molecular Devices, […]

in vitro = conditions: mouse
Method: as §1, §4, §5, §6, §7, §8, §9, §10

Structure (SMILES): CCCCCCCCCCCCCCCCOP(=O)([O-])OCC[N+](C)(C)C [miltefosine, hexadecylphosphocholine, reference compound]
- IC50 [1]: 169.55 ± 0.078 µM
- Inhibitory effect on cell proliferation of MIL-resistant L. tropica [2]: no inhibitory effects

Structure (SMILES): Nc1ncccc1Br [Cocrystal 1b, 2-amino-3-bromopyridine]
- Thermal stability up to (TGA/DSC) [3]: 67.29 °C
- Cytotoxic activity 3T3 cell line (IC50 = µM ± SEM) [4]: Non-cytotoxic

Structure (SMILES): C[C@@H]1C[C@@H]([C@H](O)CC2CC(=O)NC(=O)C2)C(=O)[C@@H](C)C1 [cyclohexamide, reference compound]
- IC50 at 48 h (in vitro): 0.8 ± 0.14 µM

Structure (SMILES): Nc1ccc(C(=O)O)cc1 [Cocrystal 1e, p-aminobenzoic acid]
- Cytotoxic activity 3T3 cell line (IC50 = µM ± SEM) [4]: Non-cytotoxic

Structure (SMILES): Nc1nc[nH]n1 [Cocrystal 1f, amitrole]
- IC50 [1]: 78 ± 0.96 µM
- Percent Inhibitions ([1]; Table S1, concentration 46.95 (unit not given)): 44.0%
- Percent Inhibitions ([1]; Table S1, concentration 93.88 (unit not given)): 53.1%
- Percent Inhibitions ([1]; Table S1, concentration 187 (unit not given)): 63.01%
- Cytotoxic activity 3T3 cell line (IC50 = µM ± SEM) ([4]; 3T3 normal mouse fibroblast, MTT, 48 h, 1-30 µM): Non-cytotoxic

Structure (SMILES): Nc1ccc(C(F)(F)F)cn1 [Cocrystal 1c, 2-amino-5-(trifluoromethyl)-pyridine]
- Thermal stability up to (TGA/DSC) [3]: 48.38 °C
- Cytotoxic activity 3T3 cell line (IC50 = µM ± SEM) [4]: Non-cytotoxic

Structure (SMILES): O=C(O)c1cc2ccccc2oc1=O [Cocrystal 1a, Coumarin-3-carboxylic acid]
- Thermal stability up to (TGA/DSC) [3]: 191.78 °C
- Cytotoxic activity 3T3 cell line (IC50 = µM ± SEM) [4]: Non-cytotoxic

Source: PMC10916291, “Cocrystals of a coumarin derivative: an efficient approach towards anti-leishmanial cocrystals against MIL-resistant Leishmania tropica” (IUCrJ, 2024)
